Experimental findings from patent US20120309796A1, “BENZOCYCLOHEPTENE ACETIC ACIDS” (priority 2011, published 2012) are described below.

Each structure is given as a SMILES string.

One may read the IC50 as the concentration needed to halve the response being measured.

Assay [1] has as its target T1, human CRTH2 (Homo sapiens, UniProt Q9Y5Y4).
T1 sequence (Q9Y5Y4 1-395): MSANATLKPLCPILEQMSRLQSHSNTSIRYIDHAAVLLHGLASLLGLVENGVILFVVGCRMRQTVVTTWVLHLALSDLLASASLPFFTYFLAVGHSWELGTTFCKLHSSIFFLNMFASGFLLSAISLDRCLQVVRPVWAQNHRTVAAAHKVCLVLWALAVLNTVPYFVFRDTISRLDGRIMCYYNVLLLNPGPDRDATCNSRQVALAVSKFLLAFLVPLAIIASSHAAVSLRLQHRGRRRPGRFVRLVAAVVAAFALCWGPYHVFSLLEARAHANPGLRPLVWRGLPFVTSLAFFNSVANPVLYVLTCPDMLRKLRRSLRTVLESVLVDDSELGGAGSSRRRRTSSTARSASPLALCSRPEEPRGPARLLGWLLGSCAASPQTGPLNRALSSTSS
The experiment in a line: Calcium Flux Assay Using Fluorometric Imaging Plate Reader (FLIPR). The format is cell-based. To be noted: CHO-K1 cells with G-alpha 16 and human CRTH2; inhibition of DK-PGD2 ligand-induced Ca2+ flux. Further details: expressed in transfected cells; host or cells: CHO-K1 previously transfected with G-alpha 16. How it is done:
CHO-K1 cells previously transfected with G-alpha 16 were subsequently transfected with the human CRTH2 receptor and the neomycin resistance gene. Following selection in 800 μg/mL G418 (geneticin), individual clones were assayed for their receptor expression based on staining with an anti human CRTH2 IgG, followed by assaying for their response to 13,14-dihydro-15-keto Prostaglandin D2 (DK-PDG2) (ligand) in the Ca^2+ Flux assay. Positive clones were then cloned by limiting dilution cloning. The transfected cells were cultured in Ham's F-12 medium supplemented with 10% fetal bovine serum, 2 mM glutamine, 100 U/mL penicillin/100 μg/mL streptomycin, 200 μg/mL hygromycin B, and 800 μg/mL G418 (geneticin). Cells were harvested with trypsin-EDTA (trypsin-ethylenediaminetetraacetic acid) and counted using ViaCount® reagent (from Guava Technologies, Inc. which contains two DNA-binding dyes that enable the reagent user to distinguish between viable and non-viable cells). The cell suspension volume was adjusted to 2.5×10^5 cells/mL with complete growth media. Aliquots of 50 μL were dispensed into BD Falcon™ 384 well black/clear microplates (from BD Biosciences, a division of Becton, Dickinson and Company) and the microplates were placed in a 37° C. CO2 incubator overnight. The following day, the microplates were used in the assay.
Loading Buffer containing dye (from the FLIPR® Calcium 3 Assay Kit from Molecular Devices, a division of MDS Analytical Technologies and MDS Inc.) was prepared by dissolving the contents of one bottle into 200 mL Hank's Balanced Salt Solution containing 20 mM HEPES (4-(2-hydroxyethyl)-1-piperazineethanesulfonic acid) and 2.5 mM probenecid. Growth media was removed from the cell plates and 25 μL of Hank's Balanced Salt Solution (HBSS) containing 20 mM HEPES, 0.05% BSA and 2.5 mM probenecid was added to each well followed by 25 μL of diluted dye using a Multidrop dispenser. The plates were then incubated for 1 hour at 37° C.
During the incubation, test compound plates were prepared by adding 90 μL of HBSS/20 mM HEPES/0.005% BSA buffer to the 2 μL of serial diluted compounds. To prepare serial diluted compounds, 20 mM stocks of compounds were dissolved in 100% DMSO. The compound dilution plate was set up as follows: well #1 received 5 μL of compound plus 10 μL of DMSO. Wells 2-10 received 10 μL of DMSO. 5 μL was mixed and transferred from well #1 into well #2. 1:3 serial dilutions were continued out 10 steps. 2 μl of diluted compound was transferred into duplicate wells of a 384 well “assay plate” and then 90 μL of buffer was added.
After incubation, both the cell and “assay plate” plates were brought to the fluorometric imaging plate reader (FLIPR®) and 20 μL of the diluted compounds were transferred to the cell plates by the FLIPR®. Plates were then incubated for 1 hour at room temperature. After the 1 hour incubation, plates were returned to the FLIPR® and 20 μL of 4.5× concentrated ligand was added to the cell plates. During the assay, fluorescence readings were taken simultaneously from all 384 wells of the cell plate every 1.5 seconds. Five readings were taken to establish a stable baseline, then 20 μL of sample was rapidly (30 μL/sec) and simultaneously added to each well of the cell plate. The fluorescence was continuously monitored before, during and after sample addition for a total elapsed time of 100 seconds. Responses (increase in peak fluorescence) in each well following agonist addition were determined. The initial fluorescence reading from each well, prior to ligand stimulation, was used as a zero baseline value for the data from that well. The responses were expressed as % inhibition of the buffer control. […]
(In general: Calcium assays in cells follow changes in intracellular calcium, usually with a dye or a luminescent sensor.)

For assay [2], the target named is T1, human CRTH2. The experiment in a line: Human CRTH2 Receptor Binding Assay (whole cell, [3H]ramatroban competition). The settings on record: CHO-K1 cells expressing human CRTH2 and G-alpha16; 20 nM [3H]ramatroban; 1 hour, room temperature. Also noted: two mammalian expression vectors that harbored human CRTH2 and G-alpha16 cDNAs; expressed in transfected cells. From the text:
A whole cell receptor binding assay using [^3H]ramatroban as the competing radioactive ligand was employed to evaluate the compound binding activity to human CRTH2. The radioactive ligand [^3H]ramatroban was synthesized according to Sugimoto et. al. (Eur. J. Pharmacol. 2005, 524, 30-37) to a specific activity of 42 Ci/mmol
A cell line stably expressing human CRTH2 was established by transfecting CHO-K1 cells with two mammalian expression vectors that harbored human CRTH2 and G-alpha16 cDNAs, respectively, using FuGene® 6 transfection reagent (from Roche). Stable clones expressing CRTH2 were selected by staining each clone with BM16 (BD Pharmingen™ from BD Biosciences, a division of Becton, Dickinson and Company), which is a rat monoclonal antibody to human CRTH2. The cells were maintained as monolayer cultures in Ham's F-12 medium containing 10% fetal bovine serum, 100 units/mL penicillin, 100 μg/mL streptomycin, 2 mM glutamine, 0.5 mg/mL G418 (geneticin) for CRTH2, and 0.2 mg/mL hygromycin-B (for G-alpha 16). For whole cell receptor binding assay, the monolayer cells were rinsed once with PBS (phosphate buffered saline), dissociated using ethylenediaminetetraacetate (Versene™ EDTA from Lonza Inc.), and suspended in PBS containing 10 mM MgCl2 and 0.06% BSA (bovine serum albumin) at 1.5×10^6 cells/mL.
The binding reactions (0.2 mL) were performed in 96-well plates at room temperature in PBS containing 1.5×10^5 cells, 10 mM MgCl2, 0.06% BSA, 20 nM [^3H]ramatroban, and test compound at various concentrations. After 1 hour of binding reactions, the cells were harvested on GF™/B filter microplates (microtiter plates with embedded glass fiber from PerkinElmer, Inc.) and washed 5 times with PBS using a Filtermate™ Harvester (a cell harvester that harvests and washes cells from microplates from PerkinElmer, Inc.). The radioactivities bound to the cells were determined using a microplate scintillation counter (TopCount® NXT, from PerkinElmer, Inc.) after adding 50 μL of Microscint™ 20 scintillation fluid (from PerkinElmer, Inc.) to each well of the filter plates. The radioactivity from non-specific binding was determined by replacing compound with 10 μM of 15(R)-15-methyl PGD2 (from Cayman Chemical Company) in the reaction mixtures. The radioactivity bound to the cells in the absence of compound (total binding) was determined by replacing compound with 0.25% of DMSO (dimethyl sulfoxide) in the reaction mixture. Specific binding data were obtained by subtracting the radioactivity of non-specific binding from each binding data.
The IC50 value is defined as the concentration of the tested compound that is required for 50% inhibition of total specific binding. In order to calculate the IC50 value, the percent inhibition data were determined for 7 concentrations for each compound. The percent inhibition for a compound at each concentration was calculated according to the following formula, [1-(specific binding in the presence of compound)/(total specific binding)]×100. The IC50 value was then obtained by fitting the percent inhibition data to a sigmoidal dose-response (4 parameter logistic) model in the XLfit® software Excel add-in program [from ID Business Solutions Ltd., model 205, where F(x)=(A+(B−A)/(1+((C/x)̂D)))].

For the compound `CS(=O)(=O)c1cccc(S(=O)(=O)NC2CCCCc3c(OCC(=O)O)cccc32)c1` (stereo not shown) [Example 5, [5-(3-Methanesulfonyl-benzenesulfonylamino)-6,7,8,9-tetrahydro-5H-benzocyclohepten-1-yloxy]-acetic acid], the IC50 worked out at 581 nM in assay [1] and 952 nM in assay [2].

Take `Cc1cc(-c2ccc(S(=O)(=O)NC3CCCCc4c(OCC(=O)O)cccc43)nc2)cc(C(C)(C)C)c1` (stereo not shown) [Example 35, {5-[5-(3-tert-Butyl-5-methyl-phenyl)-pyridine-2-sulfonylamino]-6,7,8,9-tetrahydro-5H-benzocyclohepten-1-yloxy}-acetic acid]: the IC50 in assay [1] is 140 nM; in assay [2], 17.9 nM.

Regarding `O=C(O)COc1cccc2c1CCCCC2NS(=O)(=O)c1ccc(-c2ccc(O)cc2)cc1` (stereo not shown) [Example 23, [5-(4′-Hydroxy-biphenyl-4-sulfonylamino)-6,7,8,9-tetrahydro-5H-benzocyclohepten-1-yloxy]-acetic acid], the IC50 in assay [1] stood at 42.1 nM; in assay [2] it was 103 nM.

`CN(C1CCCCc2c(OCC(=O)O)cccc21)S(=O)(=O)c1ccc(-c2cccc(C(F)(F)F)c2)cn1` (stereo not shown) [Example 34, (5-{Methyl-[5-(3-trifluoromethyl-phenyl)-pyridine-2-sulfonyl]-amino}-6,7,8,9-tetrahydro-5H-benzocyclohepten-1-yloxy)-acetic acid]: the concentration for half-maximal inhibition (IC50) in assay [1] is 4310 nM; in assay [2], 457 nM.

With `Cc1cncc(-c2ccc(S(=O)(=O)NC3CCCCc4c(OCC(=O)O)cccc43)cc2)c1` (stereo not shown) [Example 25, {5-[4-(5-Methyl-pyridin-3-yl)-benzenesulfonylamino]-6,7,8,9-tetrahydro-5H-benzocyclohepten-1-yloxy}-acetic acid], the results for the IC50 in assay [1] and in assay [2] were 123 nM and 33.7 nM, respectively.

On to `Cc1cc(-c2ccc(S(=O)(=O)N(C)C3CCCCc4c(OCC(=O)O)cccc43)nc2)cc(C(C)(C)C)c1` (stereo not shown) [Example 36, (5-{[5-(3-tert-Butyl-5-methyl-phenyl)-pyridine-2-sulfonyl]-methyl-amino}-6,7,8,9-tetrahydro-5H-benzocyclohepten-1-yloxy)-acetic acid], for which the IC50 in assay [1] was 784 nM; in assay [2] it was 164 nM.

Regarding `O=C(O)COc1cccc2c1CCCCC2NS(=O)(=O)c1cc(Cl)cc(Cl)c1` (stereo not shown) [Example 2, [5-(3,5-Dichloro-benzenesulfonylamino)-6,7,8,9-tetrahydro-5H-benzocyclohepten-1-yloxy]-acetic acid], the figures for the IC50 in assay [1] and in assay [2] were 340 nM and 58.4 nM, respectively.

As for `CN(C1CCCCc2c(OCC(=O)O)cccc21)S(=O)(=O)c1cc(Br)cc(C(F)(F)F)c1` (stereo not shown) [Example 9, {5-[(3-Bromo-5-trifluoromethyl-benzenesulfonyl)-methyl-amino]-6,7,8,9-tetrahydro-5H-benzocyclohepten-1-yloxy}-acetic acid], the IC50 was found to be 6.1 nM in assay [1] and 57.4 nM in assay [2].
